What was measured:
[1] = test system: SW620 xenografts tumor model; assay: SW620 xenograft model in vivo; settings: nude mice, 20 mg/kg intraperitoneal every 2 days, start about 100 mm^3
Protocol: In view of potent cox-2 selective inhibitory activity and anti-colon cancer proliferation activity in vitro, compound 4b was further evaluated for anti-colon cancer activity in vivo. SW620 cells (5 × 10^6) were subcutaneously injected into the rightwing nude mice to establish a xenograft model. […]. Intraperitoneal administration was performed every 2 days and tumor volume changes were recorded for 12 consecutive days. […]. After 12 days of treatment, the tumor volumes of the two treatment groups were 43.71 mm^3 and 51.69 mm^3, respectively. Finally, the tumors of each group were removed and weighed to calculate the ratio of tumor weight to body weight. […] In contrast, body weight increased slightly in the vehicle group at the later stage of treatment (Figure 5C). […] This series of representative compounds 4b, as a selective COX-2 inhibitor for the targeted therapy of colon cancer, had prominent research prospect.
Nude mice aged 6-8 weeks were purchased from the model animal research center of nanjing university and bred in a specific non-pathogenic environment. A xenograft model was established by subcutaneous injection of SW620 cells […] DMEM into the right wing (18–22 g) of nude mice. […]. Vehicle treatment groups were treated with polyethylene glycol (containing 1% DMSO). […] After administration, weighed every two days and measured tumor volume with a vernier caliper. […]

SW620 cells [2] = assay: Cell apoptosis assay (Annexin V-FITC/PI flow cytometry); type: cell-based, human; settings: 24 h (0 μM: 7.9%)
Protocol: To confirm that antiproliferation activities of SW620 were associated with apoptosis, SW620 cell apoptosis induced by compound 4b was determined using flow cytometry with Annexin V-FITC/PI Apoptosis Detection Kit. […] The percentages of cell apoptosis 7.9%, 19.9%, 45.9%, and 65.0% were responding to the concentration of compound 4b 0 μM, 2.0 μM, 4.0 μM, and 8.0 μM, respectively.
SW620 cells were seeded in the 6-well plate ([…]) and treated with compound 4b to induce apoptosis at final concentrations of 0, 2, 4, and 8 μM for 24 h. After incubation, the cells were extracted with trypsin and washed with cold PBS twice. Cells are then bound to 500 μL buffer and then annexin-v/FITC (5 μL) and PI (5 μL) were added to the medium for another 10 min to incubate darkness. Staining cells were analyzed by flow cytometry (Becton Dickinson, Franklin, NJ, USA). Flowjo 7.6.1 software (Emerald Biotech Co. Ltd., Hangzhou, China) was used for statistical analysis.

HeLa = assay: MTT antiproliferation assay, HeLa; type: cell-based; settings: Homo sapiens, 48 h, n = 3, read-out: IC50 ± SD HeLa
Protocol: (§1) MCF-7 (human breast cell line), HeLa (human cervical cell line), A549 (human lung cell line), HepG2 (human liver cell line), SW620 (human colorectal cell line) and a non-cancer cell line, NCM460 (Human colonic epithelial cells) were preserved at the State Key Laboratory of Pharmaceutical Biotechnology, Nanjing University (Nanjing, China).
(§2) The antiproliferative activity of the synthetic compounds against the SW620, MCF-7, HeLa, A549, HepG2, and NUM460 cell lines was evaluated by a colorimetric assay based on a modified standard (MTT). […] Thereafter, MTT (5 mg/mL in PBS) was added to each well and incubated for 4 h. 150 μL of DMSO was added to each well and shaken with a shaker. The absorbance (OD 570 nm) was read at 630 nm on an ELISA reader (ELx800, BioTek, montpelier, VT, USA). IC50 values for the compounds were calculated by comparison to DMSO treated control wells. Three replicate wells were used for each drug concentration. Each assay was performed three times.

SW620 cells [3] = assay: MTT antiproliferation assay, SW620; type: cell-based; settings: Homo sapiens, SW-620, 48 h, n = 3, read-out: IC50 ± SD SW620
Protocol: as §1, §2

HepG2 = assay: MTT antiproliferation assay, HepG2; type: cell-based; settings: Homo sapiens, 48 h, n = 3, read-out: IC50 ± SD HepG2
Protocol: as §1, §2

MCF-7 = assay: MTT antiproliferation assay, MCF-7; type: cell-based; settings: Homo sapiens, MCF7, 48 h, n = 3, read-out: IC50 ± SD MCF-7
Protocol: as §1, §2

[4] = MTT cytotoxicity assay, non-cancer colon cells; type: cell-based; settings: human, NCM460 colonic epithelial cells (non-cancer cell line), n = 3, non-cancer cell line, read-out: CC50 ± SD NUM460
Protocol: Besides, the MTT assay was performed on a non-cancer line NCM460 to assess the cytotoxicity of the test compound to normal colon cells.
as §1, §2

COX-1 = biological target: T1, COX-1 (Homo sapiens, UniProt P23219); assay: COX-1 inhibition assay (COX-1 ELISA kit); type: biochemical; settings: mean of four determinations; read-out: IC50 ± SD COX-1
T1 construct: purchased Cayman Chemical 701170
T1 sequence (P23219 24-599): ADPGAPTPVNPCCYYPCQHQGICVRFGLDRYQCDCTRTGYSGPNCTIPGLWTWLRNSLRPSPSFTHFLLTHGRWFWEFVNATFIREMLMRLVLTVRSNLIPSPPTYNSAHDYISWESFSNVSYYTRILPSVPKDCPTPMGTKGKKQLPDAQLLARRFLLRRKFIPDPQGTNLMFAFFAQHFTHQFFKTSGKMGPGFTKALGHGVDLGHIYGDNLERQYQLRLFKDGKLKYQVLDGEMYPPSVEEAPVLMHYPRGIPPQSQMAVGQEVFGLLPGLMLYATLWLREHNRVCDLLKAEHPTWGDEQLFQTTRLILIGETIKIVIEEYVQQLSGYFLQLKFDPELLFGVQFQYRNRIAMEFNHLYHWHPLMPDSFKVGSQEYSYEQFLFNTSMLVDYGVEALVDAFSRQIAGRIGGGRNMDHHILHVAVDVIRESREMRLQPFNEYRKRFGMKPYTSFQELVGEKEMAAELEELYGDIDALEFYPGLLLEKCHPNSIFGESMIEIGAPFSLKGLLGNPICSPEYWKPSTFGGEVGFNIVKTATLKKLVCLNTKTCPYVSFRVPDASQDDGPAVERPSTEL
Protocol: (§3) 3-(4,5-Dimethylthiazol-2-yl)-2,5-diphenyltetrazolium (MTT) were purchased from Beyotime Institute of Biotechnology (Haimen, China). Annexcin V-FITC cell apoptosis assay kit (catalog No.BA11100) was purchased from BIO-BOX (Nanjing, China). Fibronectin (#F1056) and laminin (#L2020) were purchased from Sigma-Aldrich (St. Louis, MO, USA).
(§4) Then 1 M HCl was added to the reaction mixture to stop the reaction, and one-tenth of the volume of saturated stannous chloride (50 mg/mL) was added. The reaction mixture was incubated at room temperature for 5 min, and PGF2 and PGH2 were produced.

COX-2 = biological target: T2, COX-2 (Homo sapiens, UniProt P35354); assay: COX-2 inhibition assay (COX-2 ELISA kit); type: biochemical; settings: for Selectivity Index (SI) (COX-1 IC50/COX-2 IC50): in vitro COX-2 selectivity index; for IC50: mean of four determinations, read-out: IC50 ± SD COX-2
T2 construct: purchased Cayman Chemical 701180
T2 sequence (P35354 18-604): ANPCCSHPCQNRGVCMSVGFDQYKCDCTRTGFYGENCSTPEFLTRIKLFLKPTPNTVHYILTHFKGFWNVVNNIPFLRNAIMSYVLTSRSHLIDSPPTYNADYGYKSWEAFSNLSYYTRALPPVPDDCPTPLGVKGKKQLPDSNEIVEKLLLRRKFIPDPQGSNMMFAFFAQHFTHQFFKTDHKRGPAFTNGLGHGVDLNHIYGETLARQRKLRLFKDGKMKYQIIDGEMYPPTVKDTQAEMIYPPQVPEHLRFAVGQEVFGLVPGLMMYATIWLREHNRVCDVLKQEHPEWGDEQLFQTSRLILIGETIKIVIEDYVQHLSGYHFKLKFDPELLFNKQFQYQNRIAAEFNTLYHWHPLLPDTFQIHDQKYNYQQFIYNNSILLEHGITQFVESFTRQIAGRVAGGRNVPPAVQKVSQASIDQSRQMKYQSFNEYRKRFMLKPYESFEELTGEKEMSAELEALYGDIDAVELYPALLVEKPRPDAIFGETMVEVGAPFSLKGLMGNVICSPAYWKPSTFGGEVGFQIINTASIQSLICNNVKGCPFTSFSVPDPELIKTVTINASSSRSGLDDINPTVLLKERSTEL
Protocol: as §3, §4

A549 = assay: MTT antiproliferation assay, A549; type: cell-based; settings: Homo sapiens, 48 h, n = 3, read-out: IC50 ± SD A549
Protocol: as §1, §2

Row | IC50 (HeLa) [µM] | IC50 (SW620 cells [3]) [µM] | IC50 (HepG2) [µM] | melting point [°C] | IC50 (MCF-7) [µM] | IC50 (COX-1) [µM] | Selectivity Index (SI) (COX-1 IC50/COX-2 IC50) (COX-2) | IC50 (COX-2) [µM] | IC50 (A549) [µM] | Compound | tumor volume after 12 days of treatment [1] [mm^3] | percentage of cell apoptosis (SW620 cells [2]; SW620, 2.0 μM) [%] | percentage of cell apoptosis (SW620 cells [2]; SW620, 4.0 μM) [%] | percentage of cell apoptosis (SW620 cells [2]; SW620, 8.0 μM) [%] | CC50 at 48 h [4] [µM]
1 |  |  |  |  |  |  |  |  |  | Cc1ccc(-c2cc(C(F)(F)F)nn2-c2ccc(S(N)(=O)=O)cc2)cc1 [Celecoxib, reference compound] | 51.69 |  |  |  | 
2 | 2.98 ± 0.17 | 0.86 ± 0.02 | 2.96 ± 0.14 | 200 to 201 | 2.99 ± 0.13 | 48.06 ± 0.35 | 137.3 | 0.35 ± 0.02 | 1.94 ± 0.06 | Cc1ccc(C2=NN(c3ccc(S(N)(=O)=O)cc3)C(c3ccc4c(c3)OCO4)C2)cc1 (stereo not shown) [Compound 4b, 4-(5-(Benzo[d][1,3]dioxol-5-yl)-3-(p-tolyl)-4,5-dihydro-1H-pyrazol-1-yl)benzenesulfonamide] | 43.71 | 19.9 | 45.9 | 65.0 | 134 ± 7.85
3 | 8.95 ± 0.39 | 4.84 ± 0.27 | 12.9 ± 0.99 | 200 to 201 | 7.96 ± 0.55 | > 60 | >31.09 | 1.93 ± 0.08 | 6.47 ± 0.29 | NS(=O)(=O)c1ccc(N2N=C(c3cccc(F)c3)CC2c2ccc3c(c2)OCCO3)cc1 (stereo not shown) [Compound 4v, 4-(5-(2,3-Dihydrobenzo[b][1,4]dioxin-6-yl)-3-(3-fluorophenyl)-4,5-dihydro-1H-pyrazol-1-yl)benzenesulfonamide] |  |  |  |  | 150 ± 6.94
4 | 7.04 ± 0.47 | 3.78 ± 0.22 | 9.08 ± 0.71 | 182 to 183 | 6.37 ± 0.39 | 55.02 ± 0.36 | 36.44 | 1.51 ± 0.09 | 4.34 ± 0.28 | NS(=O)(=O)c1ccc(N2N=C(c3cc(F)cc(F)c3)CC2c2ccc3c(c2)OCCO3)cc1 (stereo not shown) [Compound 4w, 4-(3-(3,5-Difluorophenyl)-5-(2,3-dihydrobenzo[b][1,4]dioxin-6-yl)-4,5-dihydro-1H-pyrazol-1-yl)benzenesulfonamide] |  |  |  |  | 105 ± 8.87
5 | 10.2 ± 0.72 | 5.51 ± 0.37 | 15.4 ± 0.84 | 191 to 192 | 8.96 ± 0.74 | > 60 | >27.40 | 2.19 ± 0.21 | 7.83 ± 0.58 | NS(=O)(=O)c1ccc(N2N=C(c3ccccc3F)CC2c2ccc3c(c2)OCCO3)cc1 (stereo not shown) [Compound 4y, 4-(5-(2,3-Dihydrobenzo[b][1,4]dioxin-6-yl)-3-(2-fluorophenyl)-4,5-dihydro-1H-pyrazol-1-yl)benzenesulfonamide] |  |  |  |  | 178 ± 12.7
6 | 8.34 ± 0.69 | 4.48 ± 0.24 | 11.7 ± 0.86 | 168 to 169 | 7.42 ± 0.63 | > 60 | >33.52 | 1.79 ± 0.13 | 5.78 ± 0.16 | NS(=O)(=O)c1ccc(N2N=C(c3ccc(F)cc3F)CC2c2ccc3c(c2)OCCO3)cc1 (stereo not shown) [Compound 4z, 4-(3-(2,4-Difluorophenyl)-5-(2,3-dihydrobenzo[b][1,4]dioxin-6-yl)-4,5-dihydro-1H-pyrazol-1-yl)benzenesulfonamide] |  |  |  |  | 135 ± 9.63

— article PMC6539903 (Molecules, 2019)
